Experimental data taken from patent US20140135357A1, “DOSE REGIME FOR CAMPTOTHECIN DERIVATIVES” (Taiwan Liposome Company, Ltd., priority 2012, published 2014).
Read-outs that look alike come from different tables or passages of the source.

Columns and labels:
[1] = biological target: T1, topoisomerase I (Homo sapiens, UniProt P11387); assay: Topoisomerase I inhibition; assay type: biochemical
T1 sequence (P11387 1-765): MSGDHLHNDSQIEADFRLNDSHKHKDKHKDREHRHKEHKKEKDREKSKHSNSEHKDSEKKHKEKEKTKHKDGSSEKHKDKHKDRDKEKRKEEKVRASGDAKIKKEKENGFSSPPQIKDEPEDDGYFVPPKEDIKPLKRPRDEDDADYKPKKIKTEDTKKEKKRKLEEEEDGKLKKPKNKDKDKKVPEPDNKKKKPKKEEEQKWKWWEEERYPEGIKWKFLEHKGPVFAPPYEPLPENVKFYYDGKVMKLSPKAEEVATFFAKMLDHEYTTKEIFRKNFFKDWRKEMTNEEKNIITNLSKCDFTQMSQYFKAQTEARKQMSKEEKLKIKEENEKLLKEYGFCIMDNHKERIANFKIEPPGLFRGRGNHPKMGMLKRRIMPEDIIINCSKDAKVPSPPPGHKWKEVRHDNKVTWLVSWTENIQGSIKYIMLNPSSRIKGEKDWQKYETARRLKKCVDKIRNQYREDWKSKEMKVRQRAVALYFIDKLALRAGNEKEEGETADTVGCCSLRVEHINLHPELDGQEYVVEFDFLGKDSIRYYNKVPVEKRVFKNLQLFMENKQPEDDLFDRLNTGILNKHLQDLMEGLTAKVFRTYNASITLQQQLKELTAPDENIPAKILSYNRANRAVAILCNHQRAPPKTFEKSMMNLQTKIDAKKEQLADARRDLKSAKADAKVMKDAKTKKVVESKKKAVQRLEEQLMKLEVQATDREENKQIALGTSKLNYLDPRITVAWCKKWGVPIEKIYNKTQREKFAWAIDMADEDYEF

[2] = human, in vivo; for time at which peak plasma concentrations (Cmax) were achieved / time of rapid rise of the metabolites in the serum after starting the infusion: iv
Description: (§1) A non-randomized phase I clinical trial was conducted at 4 institutions in the US and Taiwan.
(§2) Patients were included in this trial if they are over the age of 18, with advanced cancer and the ECOG performance status is 0 or 1. […] Patients were excluded from the study if they have previously received more than 3 regimens of chemotherapy, or if they have received chemotherapy or radiotherapy within 4 weeks of the trial recruitment.
(§3) Eligible patients were given the pharmaceutical composition of the present invention, comprising a mixture of TLC388HCl and mPEG2000-DSPE in a molar ratio of 1:0.7 to 1:0.9 (known as Lipotecan®). […] The pharmaceutical composition was administered as a 30-min IV infusion, on days 1, 8, and 15 of a 28-day cycle (i.e. 3 IV infusions per 28-day cycle).
(§4) Serum samples were collected from the patients for pharmacokinetic analysis on day 1, day 8 and day 15 of Cycles 1 and 2, at the following times:
(§5) Post IV infusion: (Day 1 and 8 of Cycle 1): 33 min; 40 min; 50 min; 1 h; 1 h 30 min; 2 h; 4 h and 8 h. Post IV infusion (Day 15 of Cycle 1 and Day 1, 8, and 15 of Cycle 2): 4 h. Patients were assessed every 8 weeks, after 2 cycles of treatments.
(§6) During the 2-cycle study period, the patients were examined regularly for the following outcomes: • Side effect/DLT; • The pK profiles of the (S,S) and (S,R) diastereomers of TLC388HCl, its 3 metabolites (TLC-U1, TLC-U2 and Topotecan) on day 1 and day 8 of the treatment cycle; and • Anti-cancer efficacy.

[3] = clinical; conditions: human, in vivo
Description: as §1, §2, §3, §4, §5, §6

CC[C@@]1(OC(=O)[C@@H](C)O)C(=O)OCc2c1cc1n(c2=O)Cc2cc3c(CN(C)C)c(O)ccc3nc2-1 [TLC-U1, S,R-topotecan lactate]
topoisomerase I inhibition [1]: weak topoisomerase I Inhibitors | Cmax and AUCo-t of TLC-U1 relative to TLC-U2 [2]: 3-4 times | Cmax and AUCo-t of TLC-U1 relative to topotecan [2]: approximately 2 times | Dose-normalized AUClast [2]: 14.49 ± 4.46 nM*h/(mg/m^2) | Dose-normalized Cmax [2]: 10.15 ± 3.87 nM/(mg/m^2) | difference between PK profiles on Day 1 and Day 8 [2]: no significant difference | dose proportionality of exposure [2]: roughly dose proportional | AUC0-t ([2]; 1.5 mg/m2): 10.869 (1.365) hr · ng/mL | Cmax ([2]; 1.5 mg/m2): 6.897 (1.325) ng/mL | Tmax ([2]; 1.5 mg/m2): 0.483 (0.000) hr | t1/2 ([2]; 1.5 mg/m2): 2.687 (0.329) hr | AUC0-t ([2]; 3 mg/m2): 16.705 (4.893) hr · ng/mL | AUC0-t ([2]; 6 mg/m2): 46.533 (10.74) hr · ng/mL | AUC0-t ([2]; 9 mg/m2): 54.481 (10.70) hr · ng/mL | AUC0-t ([2]; 20 mg/m2): 101.46 (37.00) hr · ng/mL | AUC0-t ([2]; 30 mg/m2): 190.59 (33.45) hr · ng/mL | AUC0-t ([2]; 35 mg/m2): 406.54 (77.86) hr · ng/mL | Cmax ([2]; 35 mg/m2): 327.75 (216.8) ng/mL | Tmax ([2]; 35 mg/m2): 0.546 (0.087) hr | t1/2 ([2]; 35 mg/m2): 4.064 (1.658) hr | AUC0-t ([2]; 40 mg/m2): 285.94 (207.9) hr · ng/mL | AUC0-t ([2]; 50 mg/m2): 349.27 (131.8) hr · ng/mL | AUC0-t ([2]; 60 mg/m2): 417.98 (54.75) hr · ng/mL | time at which peak plasma concentrations (Cmax) were achieved [2]: within one hour | time of rapid rise of the metabolites in the serum after starting the infusion [2]: ≤ 15 min | AUC0-t ([3]; 1.5 mg/m2, AUC0-t): 13 ng·h/mL | Cmax ([3]; 1.5 mg/m2, Cmax): 11.2 ng/mL | Tmax ([3]; 1.5 mg/m2, Tmax): 0.628 h | half-life ([3]; 1.5 mg/m2, t1/2): 2.79 h | AUC0-t ([3]; 3 mg/m2, AUC0-t): 24.6 ng·h/mL | Cmax ([3]; 3 mg/m2, Cmax): 17.1 ng/mL | Tmax ([3]; 3 mg/m2, Tmax): 0.467 h | half-life ([3]; 3 mg/m2, t1/2): 2.65 h | AUC0-t ([3]; 6 mg/m2, AUC0-t): 44.3 ng·h/mL | Cmax ([3]; 6 mg/m2, Cmax): 28.5 ng/mL | Tmax ([3]; 6 mg/m2, Tmax): 0.467 h | half-life ([3]; 6 mg/m2, t1/2): 2.9 h | AUC0-t ([3]; 9 mg/m2, AUC0-t): 48.6 ng·h/mL | Cmax ([3]; 9 mg/m2, Cmax): 37.8 ng/mL | Tmax ([3]; 9 mg/m2, Tmax): 0.563 h | half-life ([3]; 9 mg/m2, t1/2): 3.68 h | AUC0-t ([3]; 13.5 mg/m2): 99.1 ng·h/mL | Cmax ([3]; 13.5 mg/m2): 56.3 ng/mL | Tmax ([3]; 13.5 mg/m2): 0.308 h | half-life ([3]; 13.5 mg/m2): 2.85 h | AUC0-t ([3]; 20 mg/m2, AUC0-t): 112 ng·h/mL | Cmax ([3]; 20 mg/m2, Cmax): 87.4 ng/mL | Tmax ([3]; 20 mg/m2, Tmax): 0.405 h | half-life ([3]; 20 mg/m2, t1/2): 2.95 h | AUC0-t ([3]; 30 mg/m2, AUC0-t): 163 ng·h/mL | Cmax ([3]; 30 mg/m2, Cmax): 105 ng/mL | Tmax ([3]; 30 mg/m2, Tmax): 0.454 h | half-life ([3]; 30 mg/m2, t1/2): 2.66 h | AUC0-t ([3]; 35 mg/m2, AUC0-t): 340 ng·h/mL | Cmax ([3]; 35 mg/m2, Cmax): 196 ng/mL | Tmax ([3]; 35 mg/m2, Tmax): 0.638 h | half-life ([3]; 35 mg/m2, t1/2): 5.33 h | AUC0-t ([3]; 40 mg/m2, AUC0-t): 283 ng·h/mL | Tmax ([3]; 40 mg/m2, Tmax): 0.392 h | half-life ([3]; 40 mg/m2, t1/2): 2.94 h | AUC0-t ([3]; 50 mg/m2, AUC0-t): 365 ng·h/mL | Cmax ([3]; 50 mg/m2, Cmax): 242 ng/mL | Tmax ([3]; 50 mg/m2, Tmax): 0.436 h | half-life ([3]; 50 mg/m2, t1/2): 2.9 h | AUC0-t ([3]; 60 mg/m2, AUC0-t): 421 ng·h/mL | Cmax ([3]; 60 mg/m2, Cmax): 347 ng/mL | Tmax ([3]; 60 mg/m2, Tmax): 0.357 h | half-life ([3]; 60 mg/m2, t1/2): 2.91 h | Tmax ([3]; 60 mg/m2, tmax): 0.45 ± 0.17 h | half-life ([3]; T1/2): > 2.5 h | Tmax ([3]; Tmax): < 1 h

CC[C@@]1(O)C(=O)OCc2c1cc1n(c2=O)Cc2cc3c(CN(C)C)c(O)ccc3nc2-1 [Topotecan, reference compound]
Dose-normalized AUClast [2]: 8.52 ± 3.09 nM*h/(mg/m^2) | Dose-normalized Cmax [2]: 1.95 ± 1.04 nM/(mg/m^2) | difference between PK profiles on Day 1 and Day 8 [2]: no significant difference | dose proportionality of exposure [2]: roughly dose proportional | AUC0-t ([2]; 3 mg/m2): 7.866 ng·h/mL | AUC0-t ([2]; 6 mg/m2): 21.656 ng·h/mL | AUC0-t ([2]; 9 mg/m2): 37.978 ng·h/mL | AUC0-t ([2]; 20 mg/m2): 44.026 ng·h/mL | AUC0-t ([2]; 30 mg/m2): 120.74 ng·h/mL | AUC0-t ([2]; 35 mg/m2): 190.91 ng·h/mL | Cmax ([2]; 35 mg/m2): 58.075 ng/mL | Tmax ([2]; 35 mg/m2): 0.604 (0.156) hr | t1/2 ([2]; 35 mg/m2): 6.177 (3.376) hr | AUC0-t ([2]; 50 mg/m2): 207.30 ng·h/mL | AUC0-t ([2]; 60 mg/m2): 207.43 ng·h/mL | time at which peak plasma concentrations (Cmax) were achieved [2]: within one hour | time of rapid rise of the metabolites in the serum after starting the infusion [2]: ≤ 15 min | AUC0-t ([3]; 1.3 mg/m2, AUC0-t): 5.32 ng·h/mL | Cmax ([3]; 1.3 mg/m2, Cmax): 1.06 ng/mL | Tmax ([3]; 1.3 mg/m2, Tmax): 0.906 h | half-life ([3]; 1.3 mg/m2, t1/2): 4.32 h | AUC0-t ([3]; 1.5 mg/m2, AUC0-t): 6.01 ng·h/mL | Cmax ([3]; 1.5 mg/m2, Cmax): 1.52 ng/mL | Tmax ([3]; 1.5 mg/m2, Tmax): 0.628 h | half-life ([3]; 1.5 mg/m2, t1/2): 4.76 h | AUC0-t ([3]; 3 mg/m2, AUC0-t): 11.7 ng·h/mL | Cmax ([3]; 3 mg/m2, Cmax): 2.1 ng/mL | half-life ([3]; 3 mg/m2, t1/2): 7.03 h | AUC0-t ([3]; 6 mg/m2, AUC0-t): 21.5 ng·h/mL | Cmax ([3]; 6 mg/m2, Cmax): 4.83 ng/mL | Tmax ([3]; 6 mg/m2, Tmax): 0.989 h | half-life ([3]; 6 mg/m2, t1/2): 6.87 h | AUC0-t ([3]; 9 mg/m2, AUC0-t): 27.6 ng·h/mL | Cmax ([3]; 9 mg/m2, Cmax): 6.38 ng/mL | Tmax ([3]; 9 mg/m2, Tmax): 1.15 h | half-life ([3]; 9 mg/m2, t1/2): 7.7 h | AUC0-t ([3]; 13.5 mg/m2): 37.6 ng·h/mL | Cmax ([3]; 13.5 mg/m2): 8.71 ng/mL | half-life ([3]; 13.5 mg/m2): 6.29 h | half-life ([3]; 20 mg/m2): 4.65 h | AUC0-t ([3]; 20 mg/m2, AUC0-t): 47.3 ng·h/mL | Cmax ([3]; 20 mg/m2, Cmax): 11.3 ng/mL | Tmax ([3]; 20 mg/m2, Tmax): 0.483 h | half-life ([3]; 20 mg/m2, t1/2): 5.07 h | half-life ([3]; 30 mg/m2): 4.63 h | AUC0-t ([3]; 30 mg/m2, AUC0-t): 97 ng·h/mL | Tmax ([3]; 30 mg/m2, Tmax): 1.54 h | half-life ([3]; 30 mg/m2, t1/2): 4.06 h | AUC0-t ([3]; 35 mg/m2, AUC0-t): 176 ng·h/mL | Cmax ([3]; 35 mg/m2, Cmax): 51.3 ng/mL | Tmax ([3]; 35 mg/m2, Tmax): 1 h | half-life ([3]; 35 mg/m2, t1/2): 7.66 h | Tmax ([3]; 40 mg/m2, Tmax): 0.85 h | half-life ([3]; 40 mg/m2, t1/2): 5.84 h | half-life ([3]; 50 mg/m2): 5.51 h | AUC0-t ([3]; 50 mg/m2, AUC0-t): 208 ng·h/mL | Cmax ([3]; 50 mg/m2, Cmax): 37.5 ng/mL | Tmax ([3]; 50 mg/m2, Tmax): 0.903 h | half-life ([3]; 50 mg/m2, t1/2): 7.39 h | AUC0-t ([3]; 60 mg/m2, AUC0-t): 215 ng·h/mL | Cmax ([3]; 60 mg/m2, Cmax): 57.1 ng/mL | Tmax ([3]; 60 mg/m2, Tmax): 0.837 h | half-life ([3]; 60 mg/m2, t1/2): 5.18 h | Tmax ([3]; 60 mg/m2, tmax): 0.93 ± 0.82 h | half-life ([3]; T1/2): > 2.5 h
